This note sets out measurements from US8957049B2, “Inhibitors of fatty acid amide hydrolase” (Infinity Pharmaceuticals, Inc., priority 2008, dated 2015).

pKi: −log10 of the molar value.

The assay addresses T1, human FAAH (Homo sapiens, UniProt O00519).
T1 construct: host or cells: COS-7 cells, transient transfection (FuGENE 6); 13,000 g membrane fraction solubilised in 1% Triton X-100
T1 sequence (O00519 1-579): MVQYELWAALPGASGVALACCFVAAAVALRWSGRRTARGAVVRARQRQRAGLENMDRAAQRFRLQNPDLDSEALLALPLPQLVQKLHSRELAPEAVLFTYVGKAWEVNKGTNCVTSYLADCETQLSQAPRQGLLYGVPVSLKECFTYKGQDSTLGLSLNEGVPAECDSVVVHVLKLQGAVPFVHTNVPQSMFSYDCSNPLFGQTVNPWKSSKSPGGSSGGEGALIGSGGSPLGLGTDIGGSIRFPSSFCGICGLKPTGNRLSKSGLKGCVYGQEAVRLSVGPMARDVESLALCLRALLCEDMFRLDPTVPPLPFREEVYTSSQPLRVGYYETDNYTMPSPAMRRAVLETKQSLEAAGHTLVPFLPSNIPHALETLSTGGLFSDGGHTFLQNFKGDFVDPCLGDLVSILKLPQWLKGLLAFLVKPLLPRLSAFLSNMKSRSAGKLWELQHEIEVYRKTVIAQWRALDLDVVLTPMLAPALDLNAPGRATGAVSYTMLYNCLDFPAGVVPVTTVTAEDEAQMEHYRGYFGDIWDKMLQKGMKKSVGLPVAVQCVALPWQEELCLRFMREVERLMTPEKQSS
Nature of the assay: Human FAAH biochemical inhibition assay (AMC arachidonoyl amide fluorescence). The note with it: class given in each Example, read-out: Activity (Ki, inhibition of human FAAH). The method, then: Exemplary compounds are set forth in the Examples provided below. Compounds were assayed as inhibitors of human FAAH using the method described in detail in Example 286.
The following assays may be used to determine the inhibition of FAAH by the compounds of the present invention: (1) a fluorescence-based assay for fatty acid amide hydrolase compatible with high-throughput screening as described in Manjunath et al., Analytical Biochemistry (2005) 343:143-151; and (2) a high-throughput screening for the discovery of inhibitors of fatty acid amide hydrolase using a microsome-based fluorescent assay. Wang et al., Biomolecular Screening (2006) 1-9.
COS-7 cells were split the day before, 1:5 into 150 mm×25 mm cell culture dishes (Corning Inc., Cat. No. 430599). Transient transfection took place at 30-40% confluency according to FuGENE 6 Transfection Reagent (Roche, Cat. No. 11814 443 001).
The FuGENE transfection 6 reagent (45 uL) was added to 1410 μL of media (DMEM, serum free without pen/strep) in a 15 mL conical tube and incubated at room temp for 5 minutes, followed by the addition of FAAH plasmid DNA (15 μg) (OriGene Cat. No. TC119221, Genbank Accession No. NM_001441.1, 0.67 ug/uL) and a further incubation of 15 minutes at room temperature. The resulting solution was added into one dish of 30-40% confluent COS-7 cells in a drop-wise manner. The COS-7 cell dish was subsequently incubated for 48 hours. The cells are then harvested.
Media was aspirated from the dishes and the cells rinsed with 10 mL PBS. The PBS was removed and 3 mL of PBS added to the dish. The dish was scraped to resuspend the cells, and the subsequent cell suspension collected into a 15 mL conical tube. The cells were pelleted by centrifugation at 1200 rpm for 5 minutes in a bench top centrifuge. PBS was removed and the cell pellet snap frozen in liquid nitrogen and stored at −80° C.
COS-7 Cells—FAAH Purification: • (1) Fractionation: Frozen cell pellets from transient transfections were thawed on ice and resuspended in 12.5 mM Hepes pH 8.0, 100 mM NaCl, 1 mM EDTA (10 mL/0.2 g cell pellet). The pellets were dounce homogenized and then sonicated to produce cell extract. The cell extract was subsequently centrifuged at 1000 g to remove cellular debris. The pellet was discarded and the supernatant centrifuged at 13,000 g for 20 minutes. The pellet contained membrane bound FAAH. The supernatant was discarded and the pellet resolubilized. • (2) Re-solubilization: The fraction of interest, (13,000 g, membrane fraction) was re-suspended in 2.3 mL re-suspension buffer (20 mM Hepes pH 7.8, 10% v/v Glycerol, 1 mM EDTA, 1% Triton X-100) and the sample incubated on ice for 1 hour and then centrifuged to remove any particulate matter. The supernatant containing solubilized human FAAH was aliquoted and snap frozen in liquid nitrogen and stored at −80° C. until use. • (3) Characterization: Protein Concentration determined by Bradford assay. • SDS gel and Western blot to confirm presence of FAAH • FAAH activity assay • Km determination—96-well assay • Linear dependence—96-well assay • Standard compound Ki determination—384-well assay
Rat FAAH biochemical assays were carried out in a 96 well flat bottom black non-treated polystyrene plates (Corning Costar Catalogue #3915). FAAH reaction buffer: 50 mM Hepes (pH 7.5), 1 mM EDTA, 0.2% Triton X-100. FAAH substrate—AMC Arachidonoyl Amide (Cayman Chemicals Company, Catalog #10005098). The reaction was read in an Envision microtiter plate reader [Excitation filter 355 nm (40 nm bandpass); Emmision filter 460 nm (25 nm bandpass)]. The raw fluorescence was plotted on the y axis and the inhibitor concentration on the x axis to give a dose response inhibition curve. The data was fitted to a single site competitive inhibition equation, fixing the Km for the rat and human enzyme to 12 μM and 9 μM respectively. […]

For `O=C(Cc1ccccc1)N/N=C/c1ccccc1B(O)O` [Compound 121], the pKi is below 6.00.

On to `O=C(Cc1c[nH]c2ccccc12)N/N=C/c1ccccc1B(O)O` [Compound 122], for which the pKi is below 6.00.

Regarding `Cc1nc(CC(=O)N/N=C/c2ccccc2B(O)O)cs1` [Compound 123], the pKi is below 6.00.

Consider `O=C(Cc1ccccc1)N/N=C/c1cc(OCc2ccccc2)ccc1B(O)O` [Compound 124], for which the pKi is 7.00 to 8.00.

Regarding `O=C(N/N=C/c1cc(OCc2ccccc2)ccc1B(O)O)c1cccnc1` [Compound 125], the pKi is 7.00 to 8.00.

For the compound `OB(O)c1ccc(-c2cn(Cc3ccc(C(F)(F)F)cc3)nn2)cc1` [Compound 127], the pKi was 6.00 to 7.00.

On to `COc1cccc(Cn2cc(-c3ccc(B(O)O)cc3)nn2)c1` [Compound 128], for which the pKi is 7.00 to 8.00.

As for `Cc1cccc(Cn2cc(-c3ccc(B(O)O)cc3)nn2)c1` [Compound 129], the pKi was at least 8.00.

Turning to `OB(O)c1ccc(-c2cn(-c3ccccc3)nn2)cc1` [Compound 130], the pKi was 7.00 to 8.00.

Turning to `OB(O)c1ccc(-c2cn(-c3ccccc3)nn2)cc1F` [Compound 134], the pKi was 7.00 to 8.00.

As to `OB(O)c1ccc(-c2cn(Cc3ccccc3)nn2)cc1F` [Compound 137], the pKi is 7.00 to 8.00.

As to `OB(O)c1ccc(-c2cnnn2Cc2ccccc2)cc1F` [Compound 138], the pKi was 6.00 to 7.00.

Turning to `OB(O)c1ccc(-n2cc(-c3ccccc3)nn2)cc1F` [Compound 141], the pKi was 7.00 to 8.00.

As to `OB(O)c1ccc(-n2nncc2-c2ccccc2)cc1F` [Compound 142], the pKi was 6.00 to 7.00.

`OB(O)c1ccc(-n2cc(-c3ccccc3)nn2)cc1` [Compound 143]: the pKi is at least 8.00.

Consider `OB(O)c1ccc(-n2nncc2-c2ccccc2)cc1` [Compound 144], for which the pKi is 7.00 to 8.00.

For the compound `COC(=O)C1CC(Cc2ccccc2)ON1Cc1ccc(B(O)O)c(F)c1` (centres unmarked) [Compound 148], the pKi is 7.00 to 8.00.

As to `OB(O)c1cccc2cccc(COc3cccc(F)c3)c12` [Compound 151], the pKi is below 6.00.

As to `OB(O)c1ccc(C2CC(c3ccccc3)=NO2)cc1` (centres unmarked) [Compound 152], the pKi is at least 8.00.

In the case of `OB(O)c1ccc(-c2cc(-c3ccccc3)no2)cc1` [Compound 156], the pKi was at least 8.00.

Take `OB(O)c1ccc(C2=NOC(c3ccccc3)C2)cc1` (centres unmarked) [Compound 159]: the pKi is at least 8.00.

For `OB(O)c1ccc(-c2cc(-c3ccccc3)on2)cc1` [Compound 160], the pKi is at least 8.00.

As for `CCCCCC1CC(c2ccc(B(O)O)cc2)=NO1` (centres unmarked) [Compound 161], the pKi was at least 8.00.

In the case of `CCCCCC1(C)CC(c2ccc(B(O)O)cc2)=NO1` (centres unmarked) [Compound 162], the pKi is at least 8.00.

As to `CCCC1(c2ccccc2)CC(c2ccc(B(O)O)cc2)=NO1` (centres unmarked) [Compound 163], the pKi was 6.00 to 7.00.

In the case of `CCCCCC1(CCCCC)CC(c2ccc(B(O)O)cc2)=NO1` [Compound 164], the pKi was 6.00 to 7.00.

For the compound `OB(O)c1ccc(C2=NOC(c3cccnc3)C2)cc1` (centres unmarked) [Compound 165], the pKi is 7.00 to 8.00.

With `OB(O)c1ccc(-c2cc(-c3cccnc3)on2)cc1` [Compound 166], the pKi is at least 8.00.

`CCCC1CC(c2ccccc2B(O)O)=NO1` (centres unmarked) [Compound 167]: the pKi was 7.00 to 8.00.

`CCCc1cc(-c2ccccc2B(O)O)no1` [Compound 168]: the pKi was below 6.00.

Turning to `OB(O)c1ccc([C@H]2OC[C@H](c3ccccc3)CO2)cc1F` [Compound 173], the pKi is at least 8.00.

Regarding `OB(O)c1ccc([C@H]2OC[C@@H](c3ccccc3)CO2)cc1F` [Compound 174], the pKi was at least 8.00.

As to `OB(O)c1ccc([C@H]2OC[C@H](c3ccccc3)CO2)cc1` [Compound 175], the pKi is at least 8.00.

On to `OB(O)c1ccc([C@H]2OC[C@H](c3ccccc3)O2)cc1` [Compound 179], for which the pKi is at least 8.00.

For `OB(O)c1ccc([C@@H]2OC[C@H](c3ccccc3)O2)cc1` [Compound 180], the negative logarithm of the Ki (pKi) was at least 8.00.

As to `OB(O)c1ccc([C@@H]2OC[C@@H](c3ccccc3)O2)cc1` [Compound 181], the pKi was at least 8.00.

Turning to `OB(O)c1ccc([C@H]2OC[C@@H](c3ccccc3)O2)cc1` [Compound 182], the pKi was at least 8.00.

As for `CC/C=C/c1cc(OCCc2ccccc2)ccc1B(O)O` [Compound 183], the pKi was 7.00 to 8.00.

Regarding `OB(O)c1ccc(OCCc2ccccc2)cc1/C=C/CCc1ccccc1` [Compound 184], the pKi is 6.00 to 7.00.

For `OB(O)c1ccc2cc(Oc3ccccn3)ccc2c1` [Compound 185], the pKi is at least 8.00.

`OB(O)c1ccc2cc(Oc3cnccn3)ccc2c1` [Compound 186]: the pKi was at least 8.00.

In the case of `OB(O)c1ccc2nc(Oc3ccccc3)ccc2c1` [Compound 187], the pKi is at least 8.00.

For the compound `OB(O)c1ccc2ccc(Oc3ccccc3)nc2c1` [Compound 188], the pKi is at least 8.00.

With `COc1cccc(Oc2ccc3cc(B(O)O)ccc3n2)c1` [Compound 189], the pKi is at least 8.00.

As for `OB(O)c1ccc2nc(OC3CCCC3)ccc2c1` [Compound 190], the pKi is at least 8.00.

On to `CCCCOc1ccc2cc(B(O)O)ccc2n1` [Compound 191], for which the pKi is at least 8.00.

In the case of `OB(O)c1ccc2nc(OC3CCCCC3)ccc2c1` [Compound 192], the pKi is 7.00 to 8.00.

`OB(O)c1ccc2nc(OCc3ccccc3)ccc2c1` [Compound 193]: the pKi was at least 8.00.

As for `CN(C)c1cccc(Oc2ccc3cc(B(O)O)ccc3n2)c1` [Compound 194], the pKi is at least 8.00.

For the compound `O=[N+]([O-])c1cccc(Oc2ccc3cc(B(O)O)ccc3n2)c1` [Compound 195], the pKi is at least 8.00.

Regarding `OB(O)c1ccc2nc(Oc3ccccc3Cl)ccc2c1` [Compound 196], the pKi was at least 8.00.

On to `OB(O)c1ccc2nc(Oc3cccc(Cl)c3)ccc2c1` [Compound 197], for which the pKi was at least 8.00.

As to `N#Cc1cccc(Oc2ccc3cc(B(O)O)ccc3n2)c1` [Compound 198], the pKi was at least 8.00.

Regarding `OB(O)c1ccc2nc(Oc3ccccc3O)ccc2c1` [Compound 199], the pKi was at least 8.00.

Take `COc1ccccc1Oc1ccc2cc(B(O)O)ccc2n1` [Compound 200]: the pKi was at least 8.00.

`OB(O)c1ccc2nc(Oc3ccc(Cl)cc3)ccc2c1` [Compound 201]: the pKi is at least 8.00.

`COc1ccc2cc(B(O)O)ccc2n1` [Compound 202]: the pKi is 7.00 to 8.00.

Consider `CCOc1ccc2cc(B(O)O)ccc2n1` [Compound 203], for which the pKi is 7.00 to 8.00.

For `CN(Cc1ccccc1)c1ccc2cc(B(O)O)ccc2n1` [Compound 204], the pKi was at least 8.00.
